The subject of this assay is Mouse monocyte/macrophage cell line, RAW 264.7. Put plainly: Cholesterol efflux assay (3H-cholesterol, macrophage cell line). The format is cell-based. Particulars: RAW 264.7, 4 hrs incubation, 0.1% human serum albumin; for 4 h Cholesterol Efflux Emax: ABCA1-mediated efflux; for EC50: read-out: 4 h Cholesterol Efflux EC50, ABCA1-mediated efflux (CPT-cAMP induced minus non-induced).

Where a SMILES comes first, the peptide text is derived from it. [ ]: non-standard residue; d: D form. Aib = CC(C)(N)C(=O)O

Take `CC[C@H](C)[C@H](NC(=O)[C@H](Cc1ccccc1)NC(=O)[C@H](CC(=O)O)NC(=O)[C@H](CCCCN)NC(=O)[C@@H](NC(=O)[C@H](C)NC(=O)[C@H](CC(=O)O)NC(=O)CNC(=O)[C@H](CCC(=O)O)NC(=O)[C@H](CC(C)C)NC(=O)[C@H](Cc1ccc(O)cc1)NC(=O)[C@H](CO)NC(=O)[C@H](CO)NC(=O)[C@@H](NC(=O)[C@H](CC(=O)O)NC(=O)[C@H](CO)NC(=O)[C@@H](NC(=O)[C@H](Cc1ccccc1)NC(=O)[C@@H](NC(=O)CNC(=O)[C@H](CCC(=O)O)NC(=O)C(C)(C)NC(=O)[C@@H](N)Cc1c[nH]cn1)[C@@H](C)O)[C@@H](C)O)C(C)C)C(C)C)C(=O)N[C@@H](C)C(=O)N[C@@H](Cc1c[nH]c2ccccc12)C(=O)N[C@@H](CC(C)C)C(=O)N[C@H](C(=O)N[C@@H](CCC(=O)O)C(=O)N[C@@H](CCCCN)C(=O)NC(C)(C)C(=O)N[C@@H](CCCCN)C(=O)N[C@@H](CCC(=O)O)C(=O)N[C@@H](Cc1ccccc1)C(=O)N[C@@H](CC(C)C)C(N)=O)C(C)C` [Compound 18, [Aib8,Asp23,Val25,Asp27,Glu34,Lys35,Aib36,Lys37]-GLP-1-(7-37)-peptidyl-Glu-Phe-Leu amide] (H-H[Aib]EGTFTSDVSSYLEGDAVKDFIAWLVEK[Aib]KEFL-NH2): the “4 h Cholesterol Efflux Emax” value is recorded as 89%.

Usually EC50 stands for the concentration at which the effect is half-maximal. Regarding `CC[C@H](C)[C@H](NC(=O)[C@H](Cc1ccccc1)NC(=O)[C@H](CCCCN)NC(=O)[C@H](CCCCN)NC(=O)[C@@H](NC(=O)[C@H](C)NC(=O)[C@H](CCC(=O)O)NC(=O)CNC(=O)[C@H](CCC(=O)O)NC(=O)[C@H](CC(C)C)NC(=O)[C@H](Cc1ccc(O)cc1)NC(=O)[C@H](CO)NC(=O)[C@H](CO)NC(=O)[C@@H](NC(=O)[C@H](CC(=O)O)NC(=O)[C@H](CO)NC(=O)[C@@H](NC(=O)[C@H](Cc1ccccc1)NC(=O)[C@@H](NC(=O)CNC(=O)[C@H](CCC(=O)O)NC(=O)C(C)(C)NC(=O)[C@@H](N)Cc1c[nH]cn1)[C@@H](C)O)[C@@H](C)O)C(C)C)C(C)C)C(=O)N[C@@H](C)C(=O)N[C@@H](Cc1c[nH]c2ccccc12)C(=O)N[C@@H](CC(C)C)C(=O)N[C@H](C(=O)N[C@@H](CCC(=O)O)C(=O)N[C@@H](CCCCN)C(=O)NC(C)(C)C(=O)N[C@@H](CCCCN)C(=O)N[C@@H](CCC(=O)O)C(=O)N[C@@H](Cc1ccccc1)C(=O)N[C@@H](CC(C)C)C(N)=O)C(C)C` [Compound 51, [Aib8,Glu23,Val25,Lys27,Glu34,Lys35,Aib36,Lys37]-GLP-1-(7-37)-peptidyl-Glu-Phe-Leu amide] (H-H[Aib]EGTFTSDVSSYLEGEAVKKFIAWLVEK[Aib]KEFL-NH2; N-terminus assumed), the “4 h Cholesterol Efflux Emax” value is on record as 117% and the EC50 was determined as 440 nM.

`CC[C@H](C)[C@H](NC(=O)[C@H](Cc1ccccc1)NC(=O)[C@H](CCC(=O)O)NC(=O)[C@H](CCCCN)NC(=O)[C@@H](NC(=O)[C@H](C)NC(=O)[C@H](CCC(=O)O)NC(=O)[C@@H]1CCCN1C(=O)[C@H](CCC(=O)O)NC(=O)[C@H](CC(C)C)NC(=O)[C@H](Cc1ccc(O)cc1)NC(=O)[C@H](CO)NC(=O)[C@H](CO)NC(=O)[C@@H](NC(=O)[C@H](CC(=O)O)NC(=O)[C@H](CO)NC(=O)[C@@H](NC(=O)[C@H](Cc1ccccc1)NC(=O)[C@@H](NC(=O)CNC(=O)[C@H](CCC(=O)O)NC(=O)C(C)(C)NC(=O)[C@@H](N)Cc1c[nH]cn1)[C@@H](C)O)[C@@H](C)O)C(C)C)C(C)C)C(=O)N[C@@H](C)C(=O)N[C@@H](Cc1c[nH]c2ccccc12)C(=O)N[C@@H](CC(C)C)C(=O)N[C@H](C(=O)N[C@@H](CCC(=O)O)C(=O)N[C@@H](CCCCN)C(=O)NC(C)(C)C(=O)N[C@@H](CCCCN)C(=O)N[C@@H](CCC(=O)O)C(=O)N[C@@H](Cc1ccccc1)C(=O)N[C@@H](CC(C)C)C(N)=O)C(C)C` [Compound 101, [Aib8,Pro22,Glu23,Val25,Glu34,Lys35,Aib36,Lys37]-GLP-1-(7-37)-peptidyl-Glu-Phe-Leu amide] (H-H[Aib]EGTFTSDVSSYLEPEAVKEFIAWLVEK[Aib]KEFL-NH2; N-terminus assumed): the “4 h Cholesterol Efflux Emax” value is given as 92% and the EC50 was 280 nM.

For `CC[C@H](C)[C@H](NC(=O)[C@H](Cc1ccccc1)NC(=O)[C@H](CCC(=O)O)NC(=O)[C@H](CCCNC(=N)N)NC(=O)[C@@H](NC(=O)[C@H](C)NC(=O)[C@H](CCC(=O)O)NC(=O)[C@H](CCC(=O)O)NC(=O)[C@H](CCC(=O)O)NC(=O)[C@H](CCSC)NC(=O)[C@H](CCC(N)=O)NC(=O)[C@H](CCCCN)NC(=O)[C@H](CO)NC(=O)[C@H](CC(C)C)NC(=O)[C@H](CC(=O)O)NC(=O)[C@H](CO)NC(=O)[C@@H](NC(=O)[C@H](Cc1ccccc1)NC(=O)[C@@H](NC(=O)CNC(=O)[C@H](CCC(=O)O)NC(=O)C(C)(C)NC(=O)[C@@H](N)Cc1c[nH]cn1)[C@@H](C)O)[C@@H](C)O)C(C)C)C(=O)N[C@@H](CCC(=O)O)C(=O)N[C@@H](Cc1c[nH]c2ccccc12)C(=O)N[C@@H](CC(C)C)C(=O)N[C@@H](CCCCN)C(=O)N[C@@H](CC(N)=O)C(=O)N[C@@H](CCCCN)C(=O)NC(C)(C)C(=O)N[C@@H](CC(C)C)C(=O)N[C@@H](CCC(=O)O)C(=O)N[C@@H](Cc1ccccc1)C(=O)N[C@@H](CC(C)C)C(N)=O` [Compound 42, [Aib2,Glu21, Lvs29,Aib30,Leu31,Glu32,Phe33,Leu34]-Exendin-4-(1-34)-peptide amide] (H-H[Aib]EGTFTSDLSKQMEEEAVREFIEWLKNK[Aib]LEFL-NH2; N-terminus assumed), the “4 h Cholesterol Efflux Emax” value amounted to 105%.

`CC[C@H](C)[C@H](NC(=O)[C@H](Cc1ccccc1)NC(=O)[C@H](CCC(=O)O)NC(=O)[C@H](CCCCN)NC(=O)[C@@H](NC(=O)[C@H](C)NC(=O)[C@H](CCC(=O)O)NC(=O)CNC(=O)[C@H](CCC(=O)O)NC(=O)[C@H](CC(C)C)NC(=O)[C@H](Cc1ccc(O)cc1)NC(=O)[C@H](CO)NC(=O)[C@H](CO)NC(=O)[C@@H](NC(=O)[C@H](CC(=O)O)NC(=O)[C@H](CO)NC(=O)[C@@H](NC(=O)[C@H](Cc1ccccc1)NC(=O)[C@@H](NC(=O)CNC(=O)[C@H](CCC(=O)O)NC(=O)C(C)(C)NC(=O)[C@@H](N)Cc1c[nH]cn1)[C@@H](C)O)[C@@H](C)O)C(C)C)C(C)C)C(=O)N[C@@H](C)C(=O)N[C@@H](Cc1c[nH]c2ccccc12)C(=O)N[C@@H](CC(C)C)C(=O)N[C@H](C(=O)N[C@@H](CCC(=O)O)C(=O)N[C@@H](CCCCN)C(=O)NC(C)(C)C(=O)N[C@@H](CC(C)C)C(=O)N[C@@H](CO)C(=O)N[C@@H](Cc1ccccc1)C(=O)N[C@@H](CC(C)C)C(N)=O)C(C)C` [Compound 88] (H-H[Aib]EGTFTSDVSSYLEGEAVKEFIAWLVEK[Aib]LSFL-NH2): the “4 h Cholesterol Efflux Emax” value was 69%.

For the origin of these results see patent US20150344540A1, “NOVEL GLP-1 RECEPTOR AGONISTS WITH CHOLESTEROL EFFLUX ACTIVITY” (NOVO NORDISK A/S, priority 2012, published 2015).
